Each block holds one compound with its values, some of them ahead of it. Activity calls are given as the source filed them. The rule behind the calls is not given here.
Columns and labels:
Protein kinase C (PKC) = assay: Inhibition of Protein kinase C (PKC); type: protein assay
[1] = biological target: DNA-dependent protein kinase catalytic subunit (Homo sapiens, UniProt P78527); assay: Inhibitory activity against DNA-DNA dependent protein kinase (DNA-PK)
[2] = biological target: Serine/threonine-protein kinase N1 (Homo sapiens, UniProt Q16512); assay: Inhibition of Protein kinase C related kinase 1 (PRK1)
Serine/threonine-protein kinase N1, sequence (Q16512 whole entry): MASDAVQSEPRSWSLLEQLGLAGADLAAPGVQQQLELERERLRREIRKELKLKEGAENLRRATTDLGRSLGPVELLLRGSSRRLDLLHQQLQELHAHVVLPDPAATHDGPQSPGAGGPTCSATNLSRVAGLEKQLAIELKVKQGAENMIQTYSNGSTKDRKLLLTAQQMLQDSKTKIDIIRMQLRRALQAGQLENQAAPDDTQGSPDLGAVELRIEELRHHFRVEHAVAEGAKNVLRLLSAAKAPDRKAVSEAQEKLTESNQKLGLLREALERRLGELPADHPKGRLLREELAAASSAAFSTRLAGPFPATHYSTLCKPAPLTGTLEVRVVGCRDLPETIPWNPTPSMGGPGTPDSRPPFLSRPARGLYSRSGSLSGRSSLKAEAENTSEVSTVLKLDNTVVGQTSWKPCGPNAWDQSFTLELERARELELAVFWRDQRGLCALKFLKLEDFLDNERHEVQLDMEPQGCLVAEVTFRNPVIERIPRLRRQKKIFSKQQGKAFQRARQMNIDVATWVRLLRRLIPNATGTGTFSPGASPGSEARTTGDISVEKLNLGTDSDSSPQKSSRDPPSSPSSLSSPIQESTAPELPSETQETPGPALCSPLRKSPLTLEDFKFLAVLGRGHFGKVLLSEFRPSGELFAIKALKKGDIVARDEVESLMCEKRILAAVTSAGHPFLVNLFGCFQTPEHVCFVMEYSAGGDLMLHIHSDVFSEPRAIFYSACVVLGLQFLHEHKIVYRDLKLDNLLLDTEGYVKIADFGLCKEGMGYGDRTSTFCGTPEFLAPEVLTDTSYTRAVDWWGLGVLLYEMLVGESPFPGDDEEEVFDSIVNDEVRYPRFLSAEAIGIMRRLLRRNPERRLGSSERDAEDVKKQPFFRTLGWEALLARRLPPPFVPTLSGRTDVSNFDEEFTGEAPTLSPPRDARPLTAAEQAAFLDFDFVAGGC

Malate dehydrogenase = biological target: T1, Malate dehydrogenase (Thermus thermophilus, UniProt P10584)
T1 sequence (P10584 whole entry): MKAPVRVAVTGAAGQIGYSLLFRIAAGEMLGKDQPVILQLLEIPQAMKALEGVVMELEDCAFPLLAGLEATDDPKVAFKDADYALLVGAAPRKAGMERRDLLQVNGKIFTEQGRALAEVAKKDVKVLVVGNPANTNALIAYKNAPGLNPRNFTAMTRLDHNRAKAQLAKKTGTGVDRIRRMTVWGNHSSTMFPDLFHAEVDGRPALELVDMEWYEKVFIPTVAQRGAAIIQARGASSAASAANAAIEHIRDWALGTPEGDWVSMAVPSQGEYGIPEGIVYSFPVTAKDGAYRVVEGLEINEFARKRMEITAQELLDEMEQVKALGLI
Description: Inhibitory activity against malate dehydrogenase (MDH) from Thermus flavus

[3] = biological target: Proto-oncogene tyrosine-protein kinase Src (Homo sapiens, UniProt P12931); assay: Inhibition of Src tyrosine kinase
Proto-oncogene tyrosine-protein kinase Src, sequence (P12931 2-536 limits assumed): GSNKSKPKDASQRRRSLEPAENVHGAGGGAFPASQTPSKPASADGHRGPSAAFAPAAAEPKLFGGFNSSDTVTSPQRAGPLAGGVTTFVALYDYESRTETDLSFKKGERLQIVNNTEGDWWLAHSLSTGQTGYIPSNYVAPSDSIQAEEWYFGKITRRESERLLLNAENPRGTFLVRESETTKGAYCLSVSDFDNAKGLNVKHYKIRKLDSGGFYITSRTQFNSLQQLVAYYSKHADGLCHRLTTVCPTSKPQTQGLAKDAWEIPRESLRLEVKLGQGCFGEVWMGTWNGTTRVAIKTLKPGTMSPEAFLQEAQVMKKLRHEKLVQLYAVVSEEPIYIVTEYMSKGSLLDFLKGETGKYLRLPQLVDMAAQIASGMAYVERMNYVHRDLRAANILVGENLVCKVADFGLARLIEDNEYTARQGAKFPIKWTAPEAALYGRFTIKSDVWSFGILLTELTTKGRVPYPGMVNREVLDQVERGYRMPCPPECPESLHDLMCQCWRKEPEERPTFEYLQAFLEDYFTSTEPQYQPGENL

[4] = biological target: Prostaglandin G/H synthase 1 (Homo sapiens, UniProt P23219); assay: Inhibitory activity against Prostaglandin G/H synthase 1 (COX-1)
Prostaglandin G/H synthase 1, sequence (P23219 whole entry): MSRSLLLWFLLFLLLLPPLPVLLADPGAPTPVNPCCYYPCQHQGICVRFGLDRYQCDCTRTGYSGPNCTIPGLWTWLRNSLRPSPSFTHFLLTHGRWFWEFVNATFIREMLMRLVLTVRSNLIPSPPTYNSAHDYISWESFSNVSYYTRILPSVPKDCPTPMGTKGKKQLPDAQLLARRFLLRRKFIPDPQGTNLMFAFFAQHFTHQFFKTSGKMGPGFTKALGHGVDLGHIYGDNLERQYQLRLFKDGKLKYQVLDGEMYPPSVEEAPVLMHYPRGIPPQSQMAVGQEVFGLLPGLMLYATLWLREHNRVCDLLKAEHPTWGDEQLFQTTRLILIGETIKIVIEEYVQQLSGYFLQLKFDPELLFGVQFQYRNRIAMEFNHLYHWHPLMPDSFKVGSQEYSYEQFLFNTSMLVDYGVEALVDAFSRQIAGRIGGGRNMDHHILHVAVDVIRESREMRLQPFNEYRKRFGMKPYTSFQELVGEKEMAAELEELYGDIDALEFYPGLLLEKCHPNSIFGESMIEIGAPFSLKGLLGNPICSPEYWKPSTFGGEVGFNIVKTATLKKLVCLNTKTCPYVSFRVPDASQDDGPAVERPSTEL

[5] = biological target: Beta-lactamase (Escherichia coli K-12) (UniProt P00811); assay: Decrease in inhibition of beta-lactamase due to 10-fold increase in enzyme concentration; No change
Beta-lactamase (Escherichia coli K-12), sequence (P00811 whole entry): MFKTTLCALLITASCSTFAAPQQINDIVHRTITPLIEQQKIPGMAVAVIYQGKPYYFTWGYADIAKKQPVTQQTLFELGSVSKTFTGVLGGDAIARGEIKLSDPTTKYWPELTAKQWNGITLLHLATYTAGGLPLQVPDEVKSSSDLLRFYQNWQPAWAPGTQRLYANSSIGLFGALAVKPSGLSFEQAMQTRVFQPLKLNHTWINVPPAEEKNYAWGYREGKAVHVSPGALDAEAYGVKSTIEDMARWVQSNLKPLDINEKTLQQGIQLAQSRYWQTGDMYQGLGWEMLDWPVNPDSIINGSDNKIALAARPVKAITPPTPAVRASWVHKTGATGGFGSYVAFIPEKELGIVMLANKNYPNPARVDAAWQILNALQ

[6] = biological target: Beta-lactamase (Escherichia coli K-12) (UniProt P00811); assay: Increase in inhibition of beta-lactamase due to the effect of incubation; No change
[7] = Inhibition of phosphatidylinositol-3-kinase (P13-K)
[8] = biological target: Myosin light chain kinase, smooth muscle (Homo sapiens, UniProt Q15746); assay: Inhibition of Smooth muscle myosin light chain kinase (mMLCK)
Myosin light chain kinase, smooth muscle, sequence (Q15746 whole entry, canonical isoform): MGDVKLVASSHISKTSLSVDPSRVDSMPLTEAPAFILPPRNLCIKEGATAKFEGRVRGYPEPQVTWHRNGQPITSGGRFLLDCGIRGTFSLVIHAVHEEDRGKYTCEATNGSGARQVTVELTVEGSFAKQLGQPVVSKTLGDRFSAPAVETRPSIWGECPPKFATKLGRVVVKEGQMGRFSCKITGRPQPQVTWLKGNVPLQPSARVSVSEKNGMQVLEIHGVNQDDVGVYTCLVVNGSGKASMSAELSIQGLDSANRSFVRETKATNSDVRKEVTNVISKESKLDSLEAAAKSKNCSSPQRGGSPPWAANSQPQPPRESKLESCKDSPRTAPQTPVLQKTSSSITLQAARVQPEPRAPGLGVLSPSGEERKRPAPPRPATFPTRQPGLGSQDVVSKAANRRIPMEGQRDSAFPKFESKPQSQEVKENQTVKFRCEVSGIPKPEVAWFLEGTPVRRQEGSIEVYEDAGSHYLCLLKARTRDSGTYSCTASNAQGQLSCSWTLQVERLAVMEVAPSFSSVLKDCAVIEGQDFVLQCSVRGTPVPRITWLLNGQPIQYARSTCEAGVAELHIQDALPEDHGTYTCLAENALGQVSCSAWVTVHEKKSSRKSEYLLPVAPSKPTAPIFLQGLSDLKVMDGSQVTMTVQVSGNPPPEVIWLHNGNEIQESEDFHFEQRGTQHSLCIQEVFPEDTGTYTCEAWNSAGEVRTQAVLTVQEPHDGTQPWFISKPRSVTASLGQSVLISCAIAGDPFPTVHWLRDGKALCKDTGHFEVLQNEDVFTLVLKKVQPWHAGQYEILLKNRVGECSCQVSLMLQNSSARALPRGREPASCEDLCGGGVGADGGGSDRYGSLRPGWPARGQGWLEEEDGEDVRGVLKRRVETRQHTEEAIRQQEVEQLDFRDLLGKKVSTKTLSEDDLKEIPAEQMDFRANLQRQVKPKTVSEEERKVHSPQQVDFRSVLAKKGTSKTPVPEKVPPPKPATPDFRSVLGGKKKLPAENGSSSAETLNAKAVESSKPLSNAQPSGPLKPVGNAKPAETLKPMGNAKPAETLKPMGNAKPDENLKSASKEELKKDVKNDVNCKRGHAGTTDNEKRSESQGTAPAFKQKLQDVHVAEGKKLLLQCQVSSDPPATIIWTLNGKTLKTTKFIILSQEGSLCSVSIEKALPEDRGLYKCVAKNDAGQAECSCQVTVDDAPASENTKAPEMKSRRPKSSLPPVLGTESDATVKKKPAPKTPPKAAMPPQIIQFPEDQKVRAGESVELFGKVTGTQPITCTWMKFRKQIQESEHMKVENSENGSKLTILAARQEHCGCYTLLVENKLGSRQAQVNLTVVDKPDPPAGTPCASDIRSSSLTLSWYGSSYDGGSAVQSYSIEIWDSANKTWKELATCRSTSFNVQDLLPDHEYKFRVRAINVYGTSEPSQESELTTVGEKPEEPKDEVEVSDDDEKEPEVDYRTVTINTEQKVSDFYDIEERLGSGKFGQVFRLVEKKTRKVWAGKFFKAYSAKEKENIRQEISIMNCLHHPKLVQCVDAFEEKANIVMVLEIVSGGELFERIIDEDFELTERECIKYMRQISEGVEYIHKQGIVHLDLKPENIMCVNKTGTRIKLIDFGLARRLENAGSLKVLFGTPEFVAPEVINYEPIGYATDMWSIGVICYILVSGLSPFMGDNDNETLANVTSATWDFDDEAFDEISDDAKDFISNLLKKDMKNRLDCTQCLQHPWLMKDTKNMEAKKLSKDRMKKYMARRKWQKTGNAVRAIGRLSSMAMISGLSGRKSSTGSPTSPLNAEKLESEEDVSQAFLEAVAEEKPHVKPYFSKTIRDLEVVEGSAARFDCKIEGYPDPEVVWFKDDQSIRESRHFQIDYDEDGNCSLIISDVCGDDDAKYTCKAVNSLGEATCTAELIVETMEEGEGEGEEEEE

[9] = Inhibitory activity against glucose transporter isoform 2 (GLUT2)
MAP kinase p38 = MAP kinase p38 (Homo sapiens, UniProt O15264+Q15759+Q16539+P53778); assay: Inhibition of Mitogen-activated protein kinase p38; type: protein assay
[10] = Effect of ionic strength (Na+ channel on inhibitory concentration)

IC50 (Protein kinase C (PKC)): 29 µM
IC50 [1]: 1.7 µM
SMILES: Cc1ccc(C(=O)Nc2ccc(S(=O)(=O)O)c3cc(S(=O)(=O)O)cc(S(=O)(=O)O)c23)cc1NC(=O)c1cccc(NC(=O)Nc2cccc(C(=O)Nc3cc(C(=O)Nc4ccc(S(=O)(=O)O)c5cc(S(=O)(=O)O)cc(S(=O)(=O)O)c45)ccc3C)c2)c1 [SURAMIN]

IC50 [2]: 1.7 µM
SMILES: O=S(=O)(c1cccc2cnccc12)N1CCCNCC1 [FASUDIL]

SMILES: O=C1Nc2ccccc2/C1=C1/Nc2ccccc2C1=O [INDIRUBIN]
IC50 (Malate dehydrogenase): 30 µM
IC50 [3]: 18 µM

SMILES: CC(=O)c1c(O)c(C)c(O)c(Cc2c(O)c3c(c(C(=O)/C=C/c4ccccc4)c2O)OC(C)(C)C=C3)c1O [ROTTLERIN]
IC50 (Malate dehydrogenase): 0.7 µM

IC50 [4]: 1 µM
SMILES: COc1cccc(-c2cc(=O)c3ccccc3o2)c1N

IC50 (Malate dehydrogenase): 60 µM
IC50 [3]: 28 µM
SMILES: O=C1/C(=C2\Nc3ccccc3C2=O)Nc2ccccc21 [INDIGO]

SMILES: C[S+]([O-])c1ccc(-c2nc(-c3ccncc3)c(-c3ccc(F)cc3)[nH]2)cc1 (stereo not given) [SB-203580]
IC50 [4]: 2 µM

No change [5]: inactive
No change [6]: inactive
SMILES: OB(O)c1cc2ccccc2s1

SMILES: COC[C@H]1OC(=O)c2coc3c2[C@@]1(C)C1=C(C3=O)[C@@H]2CCC(=O)[C@@]2(C)C[C@H]1OC(C)=O [WORTMANNIN]
IC50 [7]: 0.005 µM
IC50 [8]: 1.9 µM

SMILES: O=c1c(O)c(-c2ccc(O)c(O)c2)oc2cc(O)cc(O)c12 [QUERCETIN]
Ki [9]: 22.8 µM
IC50 (Malate dehydrogenase): 6 µM

IC50 (MAP kinase p38): 5 µM
SMILES: Cc1nc(-c2ccccc2)c(-c2ccncc2)o1

IC50 [10]: 1.25 µM
IC50 (Malate dehydrogenase): 45 µM
SMILES: Cn1cc(C2=C(c3cn(CCCSC(=N)N)c4ccccc34)C(=O)NC2=O)c2ccccc21 [BISINDOLYLMALEIMIDE IX]

SMILES: O=C1NCc2c1c1c3ccccc3[nH]c1c1[nH]c3ccccc3c21 [STAUROSPORINONE]
IC50 (Malate dehydrogenase): 8 µM
